According to patent US4801712A, “2-Alkyl(or phenyl)thio-6-n-alkylergolines are dopamine D-1 antagonists without D-2 agonist activity” (Eli Lilly and Company, priority 1987, dated 1989):
Where a name gives a salt, the structure may show the parent alone.

How the values were obtained:
[1] = tested on: prolactin secretion (D-2); experiment: Inhibition of prolactin secretion in nonreserpinized rats (test for D-2 dopamine agonist activity); format: in vivo, rat (adult male, Sprague-Dawley); conditions: 1 hour after treatment, rat serum
Method: The drugs of this invention, represented by formulas II and III, are shown to lack D-2 dopamine agonist activity at D-1 antagonist dose levels in a test to determine their ability (or inability) to inhibit the secretion of prolactin in nonrespernized rats. This test was carried out as follows.
Adult male rats of the Sprague-Dawley strain weighing about 200 g. were housed in an air-conditioned room with controlled lighting (14 hours light-10 hours dark) and fed lab chow and water ad libitum. The compound was dissolved in 10 percent ethanol, and injected intraperitoneally at a dose of 1 or 2 mg/kg. The compound was administered to a group of 10 rats, and a control group of 10 intact males received an equivalent amount of 10 percent ethanol. One hour after treatment, all rats were killed by decapitation, and 150 μl aliquots of serum were assayed for prolactin.
The difference between the mean prolactin level of the treated rats and mean prolactin level of the control rats, divided by the mean prolactin level of the control rats, gives the percent change in prolactin secretion attributable to the given dose.

dopamine D-1 receptors = biological target: T1, dopamine D-1 receptors (Rattus norvegicus, UniProt P18901); experiment: Retinal Adenylate Cyclase Assay (dopamine D-1 antagonist assay); format: biochemical, rat (adult male, Sprague-Dawley); conditions: 10 μM dopamine, rat retina homogenate; for inhibition at 0.1 µM: 0.1 μM drug; for inhibition at 1 µM: 1.0 μM drug; for inhibition at 3 µM: 3.0 μM drug; for inhibition at 10 µM: 10.0 μM drug; for inhibition at 100 µM: 100.0 μM drug
T1 construct: Retinal tissue was removed from the eyeball and homogenized; from tissue; host or cells: rat retina homogenate (adult male Sprague-Dawley)
Method: The compounds of this invention are dopamine D-1 antagonists without D-2 agonist activity; i.e., they counter the effects of dopamine at D-1 receptors in the brain. The dopamine D-1 antagonist assay was carried out as follows.
Retinal Adenylate Cyclase Assay
Adult male, Sprague-Dawley rats purchased from Charles River Breeding Laboratories (North Wilmington, Mass.) were used in these studies. The rats were decapitated and the eyeballs were removed. The eyeballs were bisected at the juncture of the sclera and iris using capsulotomy scissors. The retina was dissociated from the choroid by irrigation with saline. Retinal tissue was removed from the eyeball and homogenized with Tris-2 mM EGTA (pH 7.4; 1:150 wt.:vol.) using a teflon-glass Dounce homogenizer at a speed of 50 rpm.
The adenylate cyclase assay was performed at an incubation temperature of 30° C. and over a 20-minute reaction period. The reaction mixture contained the following constant ingredients: 2 mM MgSO4, 0.5 mM EGTA, 1 mM IBMX, 0.01 mM GTP, 80 mM Tris-HCl, pH 7.4, 0.5 mM ATP with 3-5×10^6 cpm ^32 P-ATP and 20-25 μg retinal homogenate protein. The reaction mixture also contained various concentrations of the compound tested alone or in the presence of 10 μM dopamine. The reaction was started by the addition of ATP/^32 P-ATP and was stopped by the addition of a solution containing 1% SDS, 20 mM ATP, 0.7 mM cyclic AMP, 80 mM Tris-HCl pH 7.4 and 10^4 cpm ^3 H-cyclic AMP in a total volume of 200 μl. This mixture was heated for 2 minutes at 90° C. to further insure reaction termination. The ^32 P cyclic AMP formed during the reaction was isolated from each sample using the chromatographic method of Solomon (1979). The ^3 H-cyclic AMP was also simultaneously isolated with this procedure. The net ^32 P-cyclic AMP formed was calculated by correcting the final ^32 P cpm for column recovery efficiency delermined by the ^3 H recovery and for background radioactivity determined by the radioactivity in incubates without homogenate. Homogenate protein determinations were made using the BioRad protein assay with bovine serum albumin used at the reference protein. Dopaminergic agonist activity was evaluated based upon percent stimulation over activity without drug. Dopaminergic antagonist activity was estimated based upon the percent inhibition of the response to 10 μM dopamine.
In the Table, column 1 gives the name of the compound, column 2, the concentration of drug in the medium, and column 3, the percent inhibition of 10 μM dopamine.

prolactin = conditions: found by Clemens, Semonsky, Meites and co-workers; cited from earlier work

T1 sequence (P18901 whole entry): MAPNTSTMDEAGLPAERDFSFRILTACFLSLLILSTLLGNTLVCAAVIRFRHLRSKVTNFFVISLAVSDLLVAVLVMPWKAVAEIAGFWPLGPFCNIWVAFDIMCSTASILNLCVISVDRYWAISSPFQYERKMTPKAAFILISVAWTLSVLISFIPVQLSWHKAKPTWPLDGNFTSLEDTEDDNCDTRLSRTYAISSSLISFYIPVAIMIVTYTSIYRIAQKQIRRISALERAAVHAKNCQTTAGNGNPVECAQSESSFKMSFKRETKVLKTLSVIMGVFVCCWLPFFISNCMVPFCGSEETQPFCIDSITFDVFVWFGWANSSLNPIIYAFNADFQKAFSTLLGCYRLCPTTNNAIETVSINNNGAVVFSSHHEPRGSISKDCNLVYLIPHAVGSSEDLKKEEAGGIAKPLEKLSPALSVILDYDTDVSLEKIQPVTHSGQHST

## CSc1[nH]c2cccc3c2c1CC(N(C)C)C3 (racemic) [(±)-2-methylthio-4-dimethyamino-1,3,4,5-tetrahydrobenz[c,d]indole maleate]
[1]; ip, 1 mg/kg i.p., not marked as statistically significant, read-out: Percent changes in prolactin (inhibition)
  inhibition at 1 mg/kg: 9%
Dopamine D-1 receptors
  inhibition at 0.1 µM: -5.3%
  inhibition at 1 µM: 0.9 ± 1.5%
  inhibition at 3 µM: 19.1 ± 6.4%
  inhibition at 10 µM: 34.7 ± 13%
  inhibition at 100 µM: 84 ± 3.3%
Dopamine D-1 receptors; 0.3 μM drug
  inhibition at 0.3 µM: -2.2 ± 3.8%

## CC(C)C[C@H]1C(=O)N2CCC[C@H]2[C@]2(O)O[C@](NC(=O)[C@@H]3C=C4c5cccc6[nH]c(Br)c(c56)C[C@H]4N(C)C3)(C(C)C)C(=O)N12 [2-bromo α-ergokryptine]
prolactin
  activity as prolactin inhibitors: activity as prolactin inhibitors

## CSc1[nH]c2cccc3c2c1C[C@@H]1[C@@H]3CC(CC#N)CN1C (stereo partly drawn) [D-2-methylthio-6-methyl-8-cyanomethylergoline]
[1]; ip, 2 mg/kg i.p., * statistically significant at p < 0.05, read-out: Percent changes in prolactin (inhibition)
  inhibition at 2 mg/kg: 68%

## CSC[C@@H]1C[C@@H]2c3cccc4[nH]c(SC)c(c34)C[C@H]2N(C)C1 [D-2-methylthio-6-methyl-8β-methylthiomethylergoline]
[1]; 2 mg/kg i.p., * statistically significant at p < 0.05
  Percent changes in prolactin (stimulation): 54%
Dopamine D-1 receptors
  inhibition at 0.1 µM: -5%
  inhibition at 1 µM: 26.4 ± 6%
  inhibition at 3 µM: 49 ± 0.8%
  inhibition at 10 µM: 72.5 ± 4.8%
  inhibition at 100 µM: 76.6 ± 7.7%
Dopamine D-1 receptors; 30.0 μM drug
  inhibition at 30 µM: 73.8 ± 4.2%

## CN1CC(CC#N)C[C@@H]2c3cccc4[nH]cc(c34)C[C@H]21 (stereo partly drawn) [D-6-methyl-8-cyanomethylergoline]
prolactin
  activity as prolactin inhibitors: activity as prolactin inhibitors

## CC(C)[C@H]1C(=O)N2CCC[C@H]2[C@]2(O)O[C@](NC(=O)[C@@H]3C=C4c5cccc6[nH]cc(c56)C[C@H]4N(C)C3)(C(C)C)C(=O)N12 [Ergocornine]
prolactin
  activity as prolactin inhibitors: activity as prolactin inhibitors

## CC(C)[C@H]1C(=O)N2CCC[C@H]2[C@]2(O)O[C@](NC(=O)[C@@H]3C[C@@H]4c5cccc6[nH]cc(c56)C[C@H]4N(C)C3)(C(C)C)C(=O)N12 [dihydroergocornine]
prolactin
  activity as prolactin inhibitors: activity as prolactin inhibitors
